Source: the CheMixHub ionic liquid set
Where “and” joins values, the source holds several entries; their conditions need not be identical. Identical values can stand only once.

Experiment: xn = mol fraction of the nth substance listed

CC(C)C[C@H](N)C(=O)O + CCCC[n+]1ccn(C)c1.F[B-](F)(F)F + O
viscosity [mPa·s], 100 kPa
Details	293.15 K	298.15 K	303.15 K	308.15 K	313.15 K	318.15 K
x1 = 0.0002738, x2 = 0	1.013	0.9	0.807	0.729	0.663	0.605
x1 = 0.0002786, x2 = 0.0003728	1.044	0.93	0.848	0.763	0.705	0.65
x1 = 0.0002797, x2 = 0.0007255	1.076	0.964	0.881	0.802	0.749	0.694
x1 = 0.0002864, x2 = 0.001099	1.109	0.998	0.919	0.845	0.794	0.74
x1 = 0.0004577, x2 = 0.0007254	1.081	0.97	0.887	0.808	0.754	0.698
x1 = 0.0004593, x2 = 0	1.017	0.905	0.811	0.733	0.667	0.608
x1 = 0.0004597, x2 = 0.001099	1.115	1.004	0.925	0.85	0.8	0.746
x1 = 0.0004649, x2 = 0.0003727	1.049	0.935	0.852	0.768	0.709	0.654
x1 = 0.0006294, x2 = 0.0003726	1.054	0.94	0.857	0.772	0.714	0.659
x1 = 0.0006321, x2 = 0	1.022	0.909	0.815	0.736	0.67	0.612
x1 = 0.0006374, x2 = 0.0007252	1.086	0.975	0.892	0.812	0.759	0.704
x1 = 0.0006474, x2 = 0.001099	1.121	1.01	0.931	0.856	0.805	0.751
x1 = 0.0008066, x2 = 0	1.026	0.913	0.819	0.74	0.674	0.616
x1 = 0.0008173, x2 = 0.0003726	1.059	0.945	0.862	0.777	0.718	0.663
x1 = 0.0008279, x2 = 0.0007251	1.092	0.98	0.897	0.817	0.764	0.708
x1 = 0.0008314, x2 = 0.001099	1.127	1.016	0.936	0.861	0.81	0.756
x1 = 0.0009955, x2 = 0	1.031	0.917	0.823	0.744	0.678	0.619
x1 = 0.001003, x2 = 0.0003725	1.064	0.949	0.866	0.781	0.722	0.667
x1 = 0.001004, x2 = 0.000725	1.097	0.985	0.902	0.822	0.768	0.712
x1 = 0.00101, x2 = 0.001099	1.132	1.021	0.941	0.866	0.815	0.761
x1 = 0.001168, x2 = 0	1.035	0.921	0.826	0.747	0.681	0.622
x1 = 0.001172, x2 = 0.0007248	1.102	0.99	0.906	0.826	0.772	0.716
x1 = 0.001177, x2 = 0.0003724	1.069	0.954	0.871	0.785	0.726	0.671
x1 = 0.001183, x2 = 0.001099	1.138	1.026	0.946	0.871	0.82	0.766
x1 = 0.00135, x2 = 0.0003724	1.074	0.959	0.875	0.789	0.73	0.675
x1 = 0.001357, x2 = 0	1.04	0.925	0.83	0.751	0.684	0.625
x1 = 0.001369, x2 = 0.001098	1.144	1.031	0.951	0.876	0.825	0.771
x1 = 0.00137, x2 = 0.0007247	1.108	0.995	0.911	0.831	0.777	0.721
x1 = 0.001535, x2 = 0	1.044	0.929	0.834	0.755	0.688	0.629
x1 = 0.001541, x2 = 0.0003723	1.08	0.963	0.88	0.794	0.734	0.679
x1 = 0.001554, x2 = 0.001098	1.15	1.037	0.957	0.881	0.83	0.776
x1 = 0.001557, x2 = 0.0007246	1.113	0.999	0.915	0.835	0.781	0.725
x1 = 0.00172, x2 = 0	1.048	0.933	0.838	0.758	0.691	0.632
x1 = 0.00172, x2 = 0.0003722	1.085	0.968	0.884	0.797	0.738	0.682
x1 = 0.00172, x2 = 0.0007244	1.117	1.003	0.92	0.839	0.785	0.729
x1 = 0.001727, x2 = 0.001098	1.156	1.042	0.962	0.886	0.835	0.781

COP(=O)([O-])OC.Cn1cc[n+](C)c1 + CCCO
101 kPa
Details	viscosity [mPa·s]
293.15 K, x2 = 0.3018	116.9
298.15 K, x2 = 0	291
303.15 K, x2 = 0.1993	115.9
303.15 K, x2 = 0.5002	34.18
303.15 K, x2 = 0.5996	21.48
308.15 K, x2 = 0.1993	90.1
313.15 K, x2 = 0.5996	15.82
318.15 K, x2 = 0.098	74.8
318.15 K, x2 = 0.4	30.15
318.15 K, x2 = 0.5002	20.5
323.15 K, x2 = 0.3018	33.41
323.15 K, x2 = 0.5996	12.11
323.15 K, x2 = 0.799	4.88

CCOCC[n+]1ccn(C)c1.C[C@@H](O)[C@H](N)C(=O)[O-] + O
100 kPa
Details	viscosity
298.15 K, x1 = 0.619	1040 mPa·s
313.15 K, x1 = 0.3647	245 mPa·s
323.15 K, x1 = 0.3158	118.5 mPa·s
323.15 K, x1 = 0.3647	125.5 mPa·s
328.15 K, x1 = 0.3158	96.1 mPa·s and 99.5 mPa·s
328.15 K, x1 = 0.5081	106 mPa·s
328.15 K, x1 = 1	115.4 mPa·s

CC(=O)[O-].CCCC[N+](CCCC)(CCCC)CCCC + CCCCCCCCCCCCOS(=O)(=O)[O-].[Na+] + O
viscosity [mPa·s], 100 kPa
Details	x2 = 1.81e-06, x1 = 0.0001802	x2 = 3.61e-06, x1 = 0.0001802	x2 = 5.42e-06, x1 = 0.0001802	x2 = 7.23e-06, x1 = 0.0001802	x2 = 9.04e-06, x1 = 0.0001802	x2 = 1.084e-05, x1 = 0.0001802	x2 = 1.265e-05, x1 = 0.0001802	x2 = 1.446e-05, x1 = 0.0001802	x2 = 1.626e-05, x1 = 0.0001802	x2 = 1.807e-05, x1 = 0.0001802
293.15 K	0.997	1	1.004	1.004	1.006	1.007	1.007	1.008	1.008	1.008
298.15 K	0.89	0.893	0.894	0.894	0.898	0.901	0.902	0.903	0.904	0.904
303.15 K	0.756	0.758	0.76	0.763	0.764	0.765	0.766	0.768	0.768	0.769
308.15 K	0.679	0.68	0.681	0.683	0.684	0.684	0.686	0.687	0.688	0.688
313.15 K	0.605	0.606	0.606	0.608	0.609	0.609	0.611	0.612	0.612	0.613
318.15 K	0.569	0.572	0.572	0.574	0.575	0.575	0.577	0.578	0.578	0.579

C[C@@H](O)[C@H](N)C(=O)O + CCCCCCCCCCCCCCCC[n+]1ccccc1.[Cl-] + O
308.15 K, 101 kPa
Details	electrical conductivity [S/m]
x1 = 2.018e-05, x2 = 0	0.000218
x1 = 0.0002, x2 = 0	7.7e-05
x1 = 0.0009182, x2 = 0	0.000219

c1ccncc1 + CCCCCCCC[n+]1ccc2ccccc2c1.O=S(=O)([N-]S(=O)(=O)C(F)(F)F)C(F)(F)F
Details	viscosity [mPa·s]
338.15 K, 101 kPa, x1 = 1	0.54

COP(=O)([O-])OC.Cn1cc[n+](C)c1 + CC(C)O + O
100 kPa
Details	viscosity [mPa·s]
298.15 K, x2 = 0.248, x3 = 0.2507	83
303.15 K, x2 = 0.2, x3 = 0.1998	87
313.15 K, x2 = 0.148, x3 = 0.1518	81
323.15 K, x2 = 0.1, x3 = 0.0988	80
333.15 K, x2 = 0.044, x3 = 0.043	92

F[B-](F)(F)F.[Li+] + CCCC[n+]1ccn(C)c1.[I-]
electrical conductivity [S/m], 101 kPa
Details	298.15 K	308.15 K	323.15 K
x1 = 0.1	–	0.0454	–
x1 = 0.2	0.0449	–	0.079

CCCCCCCCCCCC[N+]1(C)CCCC1.O=C([O-])c1ccccc1O + O
100 kPa
Details	electrical conductivity [S/m]
298.15 K, x1 = 3.592e-05	0.00892
298.15 K, x1 = 3.961e-05	0.00933
298.15 K, x1 = 4.883e-05	0.0111
308.15 K, x1 = 4.883e-05	0.0151
318.15 K, x1 = 3.592e-05	0.0144
318.15 K, x1 = 5.39e-05	0.02
318.15 K, x1 = 5.759e-05	0.0215
328.15 K, x1 = 5.39e-05	0.0254
328.15 K, x1 = 5.759e-05	0.0262

CC(=O)[O-].CCCC[N+]1(C)CCCC1 + O
298.15 K, 101.3 kPa, frequency 100 MHz
Details	electrical conductivity [S/m]
x1 = 0.017	2.62
x1 = 0.163	0.985

O=C(O)C(F)(F)C(F)(F)C(F)(F)C(F)(F)F + CC[n+]1ccn(C)c1.[Cl-]
102 kPa
Details	viscosity [mPa·s]
293.15 K, x2 = 0.6636	295
303.15 K, x2 = 0.3346	24.2
313.15 K, x2 = 0.3346	17.41
318.15 K, x2 = 0.5026	31.7
323.15 K, x2 = 0.5026	26.6
333.15 K, x2 = 0.5026	19.35
333.15 K, x2 = 0.6636	39.1
338.15 K, x2 = 0.3346	8.91
338.15 K, x2 = 0.5026	16.68
348.15 K, x2 = 0.5026	12.76
353.15 K, x2 = 0.3346	6.42
